Tested on: patients with diabetes mellitus and eGFR <90 mL/min/1.73 m^2 for ≥3 months
Experiment: ANCHOR post-hoc: lipids/lipoproteins, apolipoproteins, oxidation and inflammation markers
Type: in vivo, human
Experimental: A multi-center, placebo-controlled, randomized, double-blind, 12-week study is performed to evaluate the efficacy and safety of >96% E-EPA in patients with fasting triglyceride levels ≥200 mg/dl and <500 mg/dl despite statin therapy (the mean of two qualifying entry values needs to be ≥185 mg/dl and at least one of the values needs to be ≥200 mg/dl). The primary objective of the study is to determine the efficacy of >96% E-EPA 2 g daily and 4 g daily, compared to placebo, in lowering fasting TG levels in patients with high risk for cardiovascular disease and with fasting TG levels ≥200 mg/dL and <500 mg/dL, despite treatment to LDL-C goal on statin therapy.
The primary efficacy variable for the double-blind treatment period is percent change in TG from baseline to Week 12 endpoint. The secondary efficacy variables for the double-blind treatment period include the following: • Percent changes in total cholesterol (TC), high-density lipoprotein cholesterol (HDL-C), LDL-C, calculated non-HDL-C, and very low-density lipoprotein cholesterol (VLDL-C) from baseline to Week 12 endpoint; • Percent change in very low-density lipoprotein TG from baseline to Week 12; • Percent changes in apolipoprotein A-I (apo A-I), apolipoprotein B (apo B), and apo A-I/apo B ratio from baseline to Week 12; • Percent changes in lipoprotein(a) from baseline to Week 12; • Percent changes in LDL particle number and size, measured by nuclear magnetic resonance, from baseline to Week 12; • Percent change in remnant-like particle cholesterol from baseline to Week 12; • Percent change in oxidized LDL from baseline to Week 12; • Changes in FPG and HbA1c from baseline to Week 12; • Change in insulin resistance, as assessed by the homeostasis model index insulin resistance, from baseline to Week 12; • Percent change in lipoprotein associated phospholipase A2 (Lp-PLA2) from baseline to Week 12; • Change in intracellular adhesion molecule-1 from baseline to Week 12; • Change in interleukin-2 from baseline to Week 12; • Change in plasminogen activator inhibitor-1 from baseline to Week 12. Note: this parameter will only be collected at sites with proper storage conditions; • Change in hsCRP from baseline to Week 12; and • Change in plasma concentration and red blood cell membrane content of fatty acid from baseline to Week 12 including EPA, DPA, DHA, AA, dihomo-γ-linolenic acid (DGLA), the ratio of EPA/AA, ratio of oleic acid/stearic acid (OA/SA), and the ratio of total omega-3 acids over total omega-6 acids.
CVD-related (e.g., atherogenic) parameters were analyzed in a post-hoc study of 198 patients from the multi-center, placebo-controlled, randomized double-blind, 12-week study described in Example 1. These 198 patients have reduced kidney reduced function (e.g., eGFR<90 mL/min/1.73 m^2 for ≥3 months) and diabetes mellitus.
Objective. The primary objective of this post-hoc study was to determine if and how 4 g of daily of >96% E-EPA, compared to placebo, affects patients with reduced kidney function, diabetes mellitus, and high triglyceride levels. The secondary objective was to determine if and how 4 g daily >96% E-EPA, compared to placebo, affected CVD-related parameters in patients having a high risk for CVD and fasting TG levels […]200 mg/dL and <500 mg/dL, despite treatment to LDL-C goal on statin therapy. These CVD-parameters include lipid levels, lipoprotein levels, and inflammatory markers, such as TC, LDL-C, HDL-C, VLDL-C, VLDL-TG, RLP-C, non-HDL-C, Apo B, Apo C-III, Lp-PLA2, hsCRP, and ox-LDL, and in plasma and RBC EPA concentration. CVD-parameters were analyzed for median difference in percent change from baseline to week 12 in subjects receiving 4 g/day of E-EPA and those receiving the placebo.
Subjects: 98 patients were randomized to E-EPA and 100 patients were randomized to placebo. In total, atherogenic parameters were analyzed in all 198 patients, 56% of which were male and 97% of which were white. The mean age of the 198 patients was 63 years old. […]

[1] = 4 g/day group, before treatment
[2] = 4 g/day, week 12, Hodges-Lehmann

## CC/C=C\C/C=C\C/C=C\C/C=C\C/C=C\CCCC(=O)OCC [E-EPA, ethyl eicosapentaenoate]
4 g/day group (n = 34), before treatment
  RLP-C Baseline, median: 14.0 mg/dL
4 g/day group (n = 41), before treatment
  Ox-LDL Baseline, median (IQR): 54.2 (15.8) U/L
[1]
  Apo B Baseline, median (IQR): 92.0 (22.0) mg/dL
  Apo C-III Baseline, median (IQR): 42.0 (20.0) mg/dL
  HDL-C Baseline, median: 36.0 mg/dL
  LDL-C Baseline, median: 82.5 mg/dL
  Lp-PLA2 Baseline, median (IQR): 178.0 (54.0) ng/mL
  Non-HDL-C Baseline, median: 128.5 mg/dL
  TC Baseline, median: 169.5 mg/dL
  TG Baseline, median: 262.5 mg/dL
  VLDL-C Baseline, median: 42.0 mg/dL
  VLDL-TG Baseline, median: 186.0 mg/dL
  hsCRP Baseline, median (IQR): 2.2 (2.9) mg/L
4 g/day, 12 weeks, P<0.0001
  reduction of triglycerides compared to placebo: about 19.7%
4 g/day, week 12
  Apo B Change From Baseline, %, median (IQR): −3.5 (17.0) %
  Apo B End of Treatment, median (IQR): 88.0 (25.0) mg/dL
  Apo C-III Change From Baseline, %, median (IQR): −12.3 (45.6) %
  Apo C-III End of Treatment, median (IQR): 36.5 (23.0) mg/dL
  HDL-C Change From Baseline, %, median: −3.0%
  HDL-C End of Treatment, median: 37.0 mg/dL
  LDL-C Change From Baseline, %, median: −2.1%
  LDL-C End of Treatment, median: 83.0 mg/dL
  Lp-PLA2 Change From Baseline, %, median (IQR): −14.4 (16.5) %
  Lp-PLA2 End of Treatment, median (IQR): 160.0 (52.0) ng/mL
  Non-HDL-C Change From Baseline, %, median: −6.0%
  Non-HDL-C End of Treatment, median: 120.5 mg/dL
  Ox-LDL Change From Baseline, %, median (IQR): −8.2 (17.8) %
  Ox-LDL End of Treatment, median (IQR): 49.5 (12.8) U/L
  TC Change From Baseline, %, median: −5.2%
  TC End of Treatment, median: 160.5 mg/dL
  TG Change From Baseline, %, median: −19.3%
  TG End of Treatment, median: 209.8 mg/dL
  VLDL-C Change From Baseline, %, median: −12.3%
  VLDL-C End of Treatment, median: 36.5 mg/dL
  VLDL-TG Change From Baseline, %, median: −19.2%
  VLDL-TG End of Treatment, median: 146.0 mg/dL
  hsCRP Change From Baseline, %, median (IQR): −2.4 (81.7) %
  hsCRP End of Treatment, median (IQR): 1.7 (3.0) mg/L
[2]
  Apo B Median Difference in % Change From Baseline vs. Placebo: −10.1, <0.0001%
  Apo C-III Median Difference in % Change From Baseline vs. Placebo: −19.0, 0.0006%
  HDL-C Median Difference in % Change From Baseline vs. Placebo: −7.0, 0.0009%
  LDL-C Median Difference in % Change From Baseline vs. Placebo: −7.1, 0.0375%
  Lp-PLA2 Median Difference in % Change From Baseline vs. Placebo: −16.6, <0.0001%
  Non-HDL-C Median Difference in % Change From Baseline vs. Placebo: −13.7, <0.0001%
  Ox-LDL Median Difference in % Change From Baseline vs. Placebo: −16.2, <0.0001%
  RLP-C Median Difference in % Change From Baseline vs. Placebo: −35.4, 0.0029%
  TC Median Difference in % Change From Baseline vs. Placebo: −12.5, <0.0001%
  TG Median Difference in % Change From Baseline for Icosapent Ethyl 4 g/day vs. Placebo: −19.7, <0.0001%
  VLDL-C Median Difference in % Change From Baseline vs. Placebo: −19.0, 0.0006%
  VLDL-TG Median Difference in % Change From Baseline vs. Placebo: −22.3, <0.0001%
  hsCRP Median Difference in % Change From Baseline vs. Placebo: −24.4, 0.0120%
4 g/day, week 12, n = 34
  RLP-C Change From Baseline, %, median: −28.9%
  RLP-C End of Treatment, median: 9.5 mg/dL

From patent US20230248741A1, “Compositions and Methods for Lowering Triglycerides in a Subject with Reduced Kidney Function and Diabetes Mellitus” (Amarin Pharmaceuticals Ireland Limited, priority 2018, published 2023)
